Measured values as given in US7417156B2, “Orally active, antimalarial, anticancer, artemisinin-derived trioxane dimers” (Johns Hopkins University, priority 2002, dated 2008).

Assays:
[1] = system: SW-620; assay: NCI 60 cell line panel screen (SRB); type: cell-based, human; conditions: for Log10GI50: Colon Cancer, SW-620; for Log10LC50 / Log10TGI50: SW-620 (Colon Cancer); for Log10LC50: LC50: PG=−50; for Log10TGI50: TGI: PG=0
[2] = system: SN12C; assay: NCI 60 cell line panel screen (SRB); type: cell-based, human; conditions: for Log10GI50: Renal Cancer, SN12C; for Log10LC50 / Log10TGI50: SN12C (Renal Cancer); for Log10LC50: LC50: PG=−50; for Log10TGI50: TGI: PG=0
[3] = system: UACC-62; assay: NCI 60 cell line panel screen (SRB); type: cell-based, human; conditions: for Log10GI50: Melanoma, UACC-62; for Log10LC50 / Log10TGI50: UACC-62 (Melanoma); for Log10LC50: LC50: PG=−50; for Log10TGI50: TGI: PG=0
[4] = system: P. vivax and P. falciparum; conditions: 2099 cases of malaria, different dosage forms; cited from earlier work
[5] = system: MDA-N; assay: NCI 60 cell line panel screen (SRB); type: cell-based, human; conditions: for Log10GI50: Breast Cancer, MDA-N; for Log10LC50 / Log10TGI50: MDA-N (Breast Cancer); for Log10LC50: LC50: PG=−50; for Log10TGI50: TGI: PG=0
[6] = system: P. berghei; conditions: P. berghei-infected mice; cited from earlier work
[7] = system: HCC-2998; assay: NCI 60 cell line panel screen (SRB); type: cell-based, human; conditions: for Log10GI50: Colon Cancer, HCC-2998; for Log10LC50 / Log10TGI50: HCC-2998 (Colon Cancer); for Log10LC50: LC50: PG=−50; for Log10TGI50: TGI: PG=0
[8] = system: A549/ATCC; assay: NCI 60 cell line panel screen (SRB); type: cell-based, human; conditions: for Log10LC50 / Log10TGI50: A549/ATCC (Non-Small Cell Lung Cancer); for Log10LC50: LC50: PG=−50; for Log10TGI50: TGI: PG=0; for Log10GI50: Non-Small Cell Lung Cancer, A549/ATCC
[9] = system: P388 leukemia; conditions: NCI Report on NSC 369397; cited from earlier work
[10] = system: SR; assay: NCI 60 cell line panel screen (SRB); type: cell-based, human; conditions: for Log10GI50: Leukemia, SR; for Log10LC50 / Log10TGI50: SR (Leukemia); for Log10LC50: LC50: PG=−50; for Log10TGI50: TGI: PG=0
[11] = system: SK-MEL-5; assay: NCI 60 cell line panel screen (SRB); type: cell-based, human; conditions: for Log10GI50: Melanoma, SK-MEL-5; for Log10TGI50: TGI: PG=0
[12] = system: Ehrlich ascites tumor (EAT) cells; conditions: MTT assay; cited from earlier work
[13] = system: A498; assay: NCI 60 cell line panel screen (SRB); type: cell-based, human; conditions: for Log10LC50 / Log10TGI50: A498 (Renal Cancer); for Log10LC50: LC50: PG=−50; for Log10TGI50: TGI: PG=0; for Log10GI50: Renal Cancer, A498
[14] = system: NCI-H226; assay: NCI 60 cell line panel screen (SRB); type: cell-based, human; conditions: for Log10LC50 / Log10TGI50: NCI-H226 (Non-Small Cell Lung Cancer); for Log10LC50: LC50: PG=−50; for Log10TGI50: TGI: PG=0; for Log10GI50: Non-Small Cell Lung Cancer, NCI-H226
[15] = system: DU-145; assay: NCI 60 cell line panel screen (SRB); type: cell-based, human
[16] = system: OVCAR-4; assay: NCI 60 cell line panel screen (SRB); type: cell-based, human
[17] = system: CAKI-1; assay: NCI 60 cell line panel screen (SRB); type: cell-based, human
[18] = system: LOX IMVI; assay: NCI 60 cell line panel screen (SRB); type: cell-based, human
[19] = system: SF-295; assay: NCI 60 cell line panel screen (SRB); type: cell-based, human
[20] = system: NCI-H522; assay: NCI 60 cell line panel screen (SRB); type: cell-based, human

SMILES: C[C@@H]1CC[C@H]2[C@@H](C)C(=O)O[C@@H]3O[C@]4(C)CC[C@@H]1[C@]32OO4 [Artemisinin]
- Log10GI50 [1]: >−4.00
- Log10LC50 [1]: >−4.00 log10M
- Log10TGI50 [1]: >−4.00 log10M
- Log10GI50 [2]: −4.21
- Log10LC50 [2]: >−4.00 log10M
- Log10TGI50 [2]: >−4.00 log10M
- Log10GI50 [3]: >−4.00
- Log10LC50 [3]: >−4.00 log10M
- Log10TGI50 [3]: >−4.00 log10M
- clinical outcome [4]: clinical cure of all patients
- Log10GI50 [5]: >−4.00
- Log10LC50 [5]: >−4.00 log10M
- Log10TGI50 [5]: >−4.00 log10M
- SD90 [6]: 6.20 mg/kg
- Log10GI50 [7]: >−4.00
- Log10LC50 [7]: >−4.00 log10M
- Log10TGI50 [7]: >−4.00 log10M
- Log10LC50 [8]: >−4.00 log10M
- Log10TGI50 [8]: >−4.00 log10M
- Log10GI50 [8]: −4.17
- activity in words [9]: inactive
- Log10GI50 [10]: >−4.00
- Log10LC50 [10]: >−4.00 log10M
- Log10TGI50 [10]: >−4.00 log10M
- Log10GI50 [11]: >−4.10
- Log10TGI50 ([11]; SK-MEL-5 (Melanoma)): >−4.00 log10M
- IC50 [12]: 29.8 µM
- Log10LC50 [13]: >−4.00 log10M
- Log10TGI50 [13]: >−4.00 log10M
- Log10GI50 [13]: >−4.00
- Log10LC50 [14]: >−4.00 log10M
- Log10TGI50 [14]: >−4.00 log10M
- Log10GI50 [14]: >−4.00

SMILES: CC1CCC2C(C)C(CC(CO)CC3OC4OC5(C)CCC6C(C)CCC(C3C)C46OO5)OC3OC4(C)CCC1C32OO4 (stereo not drawn) [Compound 4, bis-trioxane primary alcohol]
- Log10GI50 [1]: <−8.00
- Log10LC50 [1]: −4.44 log10M
- Log10TGI50 [1]: −4.89 log10M
- Log10GI50 [2]: −7.46
- Log10LC50 [2]: −4.35 log10M
- Log10TGI50 [2]: −4.84 log10M
- Log10GI50 [3]: −6.86
- Log10LC50 [3]: −4.29 log10M
- Log10TGI50 [3]: −4.74 log10M
- Log10GI50 [5]: −7.54
- Log10LC50 [5]: −4.45 log10M
- Log10TGI50 [5]: −4.90 log10M
- Log10GI50 [7]: −7.45
- Log10LC50 [7]: −4.59 log10M
- Log10TGI50 [7]: −5.39 log10M
- Log10LC50 [8]: −4.11 log10M
- Log10TGI50 [8]: −4.71 log10M
- Log10GI50 [8]: −7.29
- Log10LC50 ([15]; DU-145 (Prostate Cancer), LC50: PG=−50): −4.36 log10M
- Log10TGI50 ([15]; DU-145 (Prostate Cancer), TGI: PG=0): −4.72 log10M
- Log10GI50 ([15]; Prostate Cancer, DU-145): −6.24
- Log10LC50 ([16]; OVCAR-4 (Ovarian Cancer), LC50: PG=−50): −4.16 log10M
- Log10TGI50 ([16]; OVCAR-4 (Ovarian Cancer), TGI: PG=0): −4.62 log10M
- Log10GI50 ([16]; Ovarian Cancer, OVCAR-4): −5.44
- Log10LC50 ([17]; CAKI-1 (Renal Cancer), LC50: PG=−50): −4.38 log10M
- Log10TGI50 ([17]; CAKI-1 (Renal Cancer), TGI: PG=0): −4.84 log10M
- Log10GI50 ([17]; Renal Cancer, CAKI-1): −7.05
- Log10GI50 [10]: <−8.00
- Log10LC50 [10]: >−4.00 log10M
- Log10TGI50 [10]: −4.58 log10M
- Log10LC50 ([18]; LOX IMVI (Melanoma), LC50: PG=−50): >−4.00 log10M
- Log10TGI50 ([18]; LOX IMVI (Melanoma), TGI: PG=0): −4.45 log10M
- Log10GI50 ([18]; Melanoma, LOX IMVI): −7.26
- Log10GI50 [11]: −7.90
- Log10LC50 ([11]; SK-MEL-5 (Melanoma), LC50: PG=−50): −4.53 log10M
- Log10TGI50 ([11]; SK-MEL-5 (Melanoma)): −7.18 log10M
- Log10GI50 ([19]; CNS Cancer, SF-295): −5.59
- Log10LC50 ([19]; SF-295 (CNS Cancer), LC50: PG=−50): −4.39 log10M
- Log10TGI50 ([19]; SF-295 (CNS Cancer), TGI: PG=0): −4.80 log10M
- Log10TGI50 ([20]; NCI-H522 (Non-Small Cell Lung Cancer), TGI: PG=0): −4.88 log10M
- Log10LC50 ([20]; NCI-H-522 (Non-Small Cell Lung Cancer), LC50: PG=−50): −4.40 log10M
- Log10GI50 ([20]; Non-Small Cell Lung Cancer, NCI-H522): −7.53
- Log10LC50 [13]: −4.50 log10M
- Log10TGI50 [13]: −5.00 log10M
- Log10GI50 [13]: −6.69
- Log10LC50 [14]: >−4.00 log10M
- Log10TGI50 [14]: −4.40 log10M
- Log10GI50 [14]: −4.82
